Experiment [1] has as its target T1, G protein-coupled receptor kinase 5 (Bos taurus, UniProt P43249). The experiment is described as follows: ChEBML_1612831. The procedure: (§1) Inhibition of bovine GRK5 assessed as decrease in phosphorylation of tubulin after 5 mins by SDS-PAGE analysis
Experiment [2] concerns the target T2, Rhodopsin kinase GRK1 (Bos taurus, UniProt P28327).
T2 sequence (P28327 whole entry): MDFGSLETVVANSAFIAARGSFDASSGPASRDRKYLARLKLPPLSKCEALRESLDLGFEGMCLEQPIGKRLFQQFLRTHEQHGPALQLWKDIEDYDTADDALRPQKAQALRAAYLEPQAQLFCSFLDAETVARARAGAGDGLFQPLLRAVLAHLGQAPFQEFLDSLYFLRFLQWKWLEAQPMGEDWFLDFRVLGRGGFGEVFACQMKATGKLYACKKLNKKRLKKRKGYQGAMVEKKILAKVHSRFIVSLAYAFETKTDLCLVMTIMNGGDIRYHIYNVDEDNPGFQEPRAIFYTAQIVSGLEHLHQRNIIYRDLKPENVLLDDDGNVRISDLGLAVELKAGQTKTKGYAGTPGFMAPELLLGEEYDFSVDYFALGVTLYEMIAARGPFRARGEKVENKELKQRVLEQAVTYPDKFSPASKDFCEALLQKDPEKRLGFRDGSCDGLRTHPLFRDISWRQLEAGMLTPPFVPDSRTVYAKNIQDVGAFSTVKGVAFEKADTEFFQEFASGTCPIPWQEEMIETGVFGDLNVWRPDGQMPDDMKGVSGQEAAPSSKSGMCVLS
The experiment is described as follows: ChEBML_1612830. The protocol: (§2) Inhibition of bovine GRK1 (1 to 535 residues) assessed as decrease in phosphorylation of tubulin after 5 mins by SDS-PAGE analysis

The target in experiment [3] is T1, G protein-coupled receptor kinase 5. The experiment is described as follows: Inhibition of C-terminal hexahistidine tagged bovine GRK5 (561 residues) assessed as decrease in phosphorylation of light-activated bovine rod outer segments preincubated for 30 mins followed by ATP addition.
Experiment [4] addresses T2, Rhodopsin kinase GRK1. The experiment can be described thus: Inhibition of C-terminal hexahistidine tagged bovine GRK1 (535 residues) assessed as decrease in phosphorylation of light-activated bovine rod outer segments preincubated for 30 mins followed by ATP addition.
The target in experiment [5] is T1, G protein-coupled receptor kinase 5. The experiment is described as follows: Inhibition of C-terminal hexahistidine tagged bovine GRK5 (561 residues) assessed as decrease in phosphorylation of tubulin preincubated for 30 mins followed by ATP addition.
Experiment [6] addresses T2, Rhodopsin kinase GRK1. The experiment can be described thus: Inhibition of C-terminal hexahistidine tagged bovine GRK1 (535 residues) assessed as decrease in phosphorylation of tubulin preincubated for 30 mins followed by ATP addition.
In experiment [7] the target is T1, G protein-coupled receptor kinase 5. The description is as §1.
Experiment [8] addresses T2, Rhodopsin kinase GRK1. Described as §2.

T1 sequence (P43249 whole entry): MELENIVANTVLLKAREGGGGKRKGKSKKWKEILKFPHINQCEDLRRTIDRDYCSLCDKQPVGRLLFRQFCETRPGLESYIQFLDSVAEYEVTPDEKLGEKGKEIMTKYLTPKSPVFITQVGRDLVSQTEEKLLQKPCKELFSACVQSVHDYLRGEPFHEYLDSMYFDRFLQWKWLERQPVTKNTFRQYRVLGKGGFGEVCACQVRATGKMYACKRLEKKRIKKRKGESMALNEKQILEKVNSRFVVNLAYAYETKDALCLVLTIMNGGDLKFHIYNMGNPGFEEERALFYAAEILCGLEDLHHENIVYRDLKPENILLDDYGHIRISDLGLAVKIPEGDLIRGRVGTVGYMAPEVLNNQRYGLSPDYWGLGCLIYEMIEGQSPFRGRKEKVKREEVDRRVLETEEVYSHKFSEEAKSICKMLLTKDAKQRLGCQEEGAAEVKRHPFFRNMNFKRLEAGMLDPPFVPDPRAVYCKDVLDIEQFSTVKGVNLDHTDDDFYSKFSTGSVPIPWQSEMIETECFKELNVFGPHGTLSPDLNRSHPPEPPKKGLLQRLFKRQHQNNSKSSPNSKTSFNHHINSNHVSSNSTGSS

The compound `CC1=C(C(=O)Nc2ccc3[nH]ncc3c2)C(c2ccc(Cl)c(Cl)c2)CC(=O)N1` (centres undefined) [4-(3,4-Dichlorophenyl)-N-1H-indazol-5-yl-2-methyl-6-oxo-1,4,5,6-tetrahydropyridine-3-carboxamide] registered a half-inhibitory concentration (IC50) in experiment [1] of 79.4 µM.

Consider `Fc1ccc([C@@H]2CCNC[C@H]2COc2ccc3c(c2)OCO3)cc1` [PAROXETINE], for which the IC50 against Rhodopsin kinase GRK1 [2] came to 398 µM; in experiment [3], 251 µM; at Rhodopsin kinase GRK1 [4] it was 316 µM; in experiment [5] it was 126 µM; at Rhodopsin kinase GRK1 [6], 158 µM.

For `CC1=C(C(=O)Nc2cc(Cl)c3[nH]ncc3c2)C(c2ccc(C(F)(F)F)cc2)CC(=O)N1` (centres undefined) [N-(7-chloro-1H-indazol-5-yl)-2-methyl-6-oxo-4-[4-(trifluoromethyl)phenyl]-1,4,5,6-tetrahydropyridine-3-carboxamide], the IC50 in experiment [7] was found to be 39.8 µM.

Turning to `CC1=C(C(=O)Nc2ccc3[nH]ncc3c2)C(c2ccc3ccccc3c2)CC(=O)N1` (centres undefined) [N-(1H-indazol-5-yl)-2-methyl-4-(naphthalen-2-yl)-6-oxo-1,4,5,6-tetrahydropyridine-3-carboxamide], the IC50 was determined as 794 µM on Rhodopsin kinase GRK1 [8] and 63.1 µM in experiment [7].

The values are drawn from BindingDB's records for doi:10.1021/acs.jmedchem.5b01939 (University of Messina, 2016).
